Measured values from publication PMC5760531, “Action Potential Recording and Pro-arrhythmia Risk Analysis in Human Ventricular Trabeculae” (Frontiers in Physiology, 2018).

Test system: human ventricular trabeculae
Assay: Action potential recording and pro-arrhythmic score analysis in human ventricular trabeculae (hVT);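 note: sharp microelectrode action potential recordings at 37°C in Tyrode-perfused trabeculae, 4 cumulative concentrations each applied 31 min, values averaged over last 30 APs, vehicle 0.1% DMSO as control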
Conditions: 1Hz; for Beat Escape (raw data) / EADs (raw data) / Refractoriness Escape (raw data): n=4 trabeculae

Cc1cccc(C)c1OCC(C)N (stereo not drawn) [MEXILETINE, Mexiletine]
AMAX (average raw data) (0.7-FOLD free ETPC (4.1µM)): 111 | AMAX percentage change compared to vehicle control (0.7-FOLD free ETPC (4.1µM)): 0% | APD30 (average raw data) (0.7-FOLD free ETPC (4.1µM)): 174 | APD30 percentage change compared to vehicle control (0.7-FOLD free ETPC (4.1µM)): -5% | APD50 (average raw data) (0.7-FOLD free ETPC (4.1µM)): 231 | APD50 percentage change compared to vehicle control (0.7-FOLD free ETPC (4.1µM)): -3% | APD90 (average raw data) (0.7-FOLD free ETPC (4.1µM)): 321 | APD90 percentage change compared to vehicle control (0.7-FOLD free ETPC (4.1µM)): -1% | Alternans (average raw data) (0.7-FOLD free ETPC (4.1µM)): 0.72 | Alternans percentage change compared to vehicle control (0.7-FOLD free ETPC (4.1µM)): 7% | Beat Escape percentage change compared to vehicle control (0.7-FOLD free ETPC (4.1µM)): 25% | EADs percentage change compared to vehicle control (0.7-FOLD free ETPC (4.1µM)): 0% | ERP (average raw data) (0.7-FOLD free ETPC (4.1µM)): 0.43 | ERP percentage change compared to vehicle control (0.7-FOLD free ETPC (4.1µM)): 1% | Max Dispersion (average raw data) (0.7-FOLD free ETPC (4.1µM)): 3.75 | Max Dispersion percentage change compared to vehicle control (0.7-FOLD free ETPC (4.1µM)): 0% | RMP (average raw data) (0.7-FOLD free ETPC (4.1µM)): -91 | RMP percentage change compared to vehicle control (0.7-FOLD free ETPC (4.1µM)): 1% | Refractoriness Escape percentage change compared to vehicle control (0.7-FOLD free ETPC (4.1µM)): 0% | STV (average raw data) (0.7-FOLD free ETPC (4.1µM)): 0.51 | STV percentage change compared to vehicle control (0.7-FOLD free ETPC (4.1µM)): 1% | Triangulation (average raw data) (0.7-FOLD free ETPC (4.1µM)): 147 | Triangulation percentage change compared to vehicle control (0.7-FOLD free ETPC (4.1µM)): 4% | Beat Escape (raw data) (0.7-FOLD free ETPC (4.1µM)): 1 | EADs (raw data) (0.7-FOLD free ETPC (4.1µM)): 0 | Refractoriness Escape (raw data) (0.7-FOLD free ETPC (4.1µM)): 0 | AMAX (average raw data) (7-FOLD free ETPC (4.1µM)): 109 | AMAX percentage change compared to vehicle control (7-FOLD free ETPC (4.1µM)): -3% | APD30 (average raw data) (7-FOLD free ETPC (4.1µM)): 158 | APD30 percentage change compared to vehicle control (7-FOLD free ETPC (4.1µM)): -13% | APD50 (average raw data) (7-FOLD free ETPC (4.1µM)): 206 | APD50 percentage change compared to vehicle control (7-FOLD free ETPC (4.1µM)): -14% | APD90 (average raw data) (7-FOLD free ETPC (4.1µM)): 297 | APD90 percentage change compared to vehicle control (7-FOLD free ETPC (4.1µM)): -8% | Alternans (average raw data) (7-FOLD free ETPC (4.1µM)): 0.68 | Alternans percentage change compared to vehicle control (7-FOLD free ETPC (4.1µM)): 0% | Beat Escape percentage change compared to vehicle control (7-FOLD free ETPC (4.1µM)): 25% | EADs percentage change compared to vehicle control (7-FOLD free ETPC (4.1µM)): 0% | ERP (average raw data) (7-FOLD free ETPC (4.1µM)): 0.41 | ERP percentage change compared to vehicle control (7-FOLD free ETPC (4.1µM)): -5% | Max Dispersion (average raw data) (7-FOLD free ETPC (4.1µM)): 2.82 | Max Dispersion percentage change compared to vehicle control (7-FOLD free ETPC (4.1µM)): -25% | RMP (average raw data) (7-FOLD free ETPC (4.1µM)): -91 | RMP percentage change compared to vehicle control (7-FOLD free ETPC (4.1µM)): 1% | Refractoriness Escape percentage change compared to vehicle control (7-FOLD free ETPC (4.1µM)): 0% | STV (average raw data) (7-FOLD free ETPC (4.1µM)): 0.49 | STV percentage change compared to vehicle control (7-FOLD free ETPC (4.1µM)): -3% | Triangulation (average raw data) (7-FOLD free ETPC (4.1µM)): 140 | Triangulation percentage change compared to vehicle control (7-FOLD free ETPC (4.1µM)): -1% | Beat Escape (raw data) (7-FOLD free ETPC (4.1µM)): 1 | EADs (raw data) (7-FOLD free ETPC (4.1µM)): 0 | Refractoriness Escape (raw data) (7-FOLD free ETPC (4.1µM)): 0 | AMAX (average raw data) (24-FOLD free ETPC (4.1µM)): 102 | AMAX percentage change compared to vehicle control (24-FOLD free ETPC (4.1µM)): -9% | APD30 (average raw data) (24-FOLD free ETPC (4.1µM)): 137 | APD30 percentage change compared to vehicle control (24-FOLD free ETPC (4.1µM)): -25% | APD50 (average raw data) (24-FOLD free ETPC (4.1µM)): 180 | APD50 percentage change compared to vehicle control (24-FOLD free ETPC (4.1µM)): -25% | APD90 (average raw data) (24-FOLD free ETPC (4.1µM)): 282 | APD90 percentage change compared to vehicle control (24-FOLD free ETPC (4.1µM)): -13% | Alternans (average raw data) (24-FOLD free ETPC (4.1µM)): 17.51 | Alternans percentage change compared to vehicle control (24-FOLD free ETPC (4.1µM)): 2481% | Beat Escape percentage change compared to vehicle control (24-FOLD free ETPC (4.1µM)): 75% | EADs percentage change compared to vehicle control (24-FOLD free ETPC (4.1µM)): 0% | ERP (average raw data) (24-FOLD free ETPC (4.1µM)): 0.39 | ERP percentage change compared to vehicle control (24-FOLD free ETPC (4.1µM)): -8% | Max Dispersion (average raw data) (24-FOLD free ETPC (4.1µM)): 50.33 | Max Dispersion percentage change compared to vehicle control (24-FOLD free ETPC (4.1µM)): 1242% | RMP (average raw data) (24-FOLD free ETPC (4.1µM)): -89 | RMP percentage change compared to vehicle control (24-FOLD free ETPC (4.1µM)): -1% | Refractoriness Escape percentage change compared to vehicle control (24-FOLD free ETPC (4.1µM)): 0% | STV (average raw data) (24-FOLD free ETPC (4.1µM)): 12.96 | STV percentage change compared to vehicle control (24-FOLD free ETPC (4.1µM)): 2873% | Triangulation (average raw data) (24-FOLD free ETPC (4.1µM)): 145 | Triangulation percentage change compared to vehicle control (24-FOLD free ETPC (4.1µM)): 3% | Beat Escape (raw data) (24-FOLD free ETPC (4.1µM)): 3 | EADs (raw data) (24-FOLD free ETPC (4.1µM)): 0 | Refractoriness Escape (raw data) (24-FOLD free ETPC (4.1µM)): 0 | AMAX (average raw data) (73-FOLD free ETPC (4.1µM)): 86 | AMAX percentage change compared to vehicle control (73-FOLD free ETPC (4.1µM)): -22% | APD30 (average raw data) (73-FOLD free ETPC (4.1µM)): 120 | APD30 percentage change compared to vehicle control (73-FOLD free ETPC (4.1µM)): -27% | APD50 (average raw data) (73-FOLD free ETPC (4.1µM)): 165 | APD50 percentage change compared to vehicle control (73-FOLD free ETPC (4.1µM)): -27% | APD90 (average raw data) (73-FOLD free ETPC (4.1µM)): 277 | APD90 percentage change compared to vehicle control (73-FOLD free ETPC (4.1µM)): -9% | Alternans (average raw data) (73-FOLD free ETPC (4.1µM)): 2.53 | Alternans percentage change compared to vehicle control (73-FOLD free ETPC (4.1µM)): 272% | EADs percentage change compared to vehicle control (73-FOLD free ETPC (4.1µM)): 0% | ERP (average raw data) (73-FOLD free ETPC (4.1µM)): 0.42 | ERP percentage change compared to vehicle control (73-FOLD free ETPC (4.1µM)): -1% | Max Dispersion (average raw data) (73-FOLD free ETPC (4.1µM)): 6.30 | Max Dispersion percentage change compared to vehicle control (73-FOLD free ETPC (4.1µM)): 68% | RMP (average raw data) (73-FOLD free ETPC (4.1µM)): -76 | RMP percentage change compared to vehicle control (73-FOLD free ETPC (4.1µM)): -13% | Refractoriness Escape percentage change compared to vehicle control (73-FOLD free ETPC (4.1µM)): 0% | STV (average raw data) (73-FOLD free ETPC (4.1µM)): 1.74 | STV percentage change compared to vehicle control (73-FOLD free ETPC (4.1µM)): 182% | Triangulation (average raw data) (73-FOLD free ETPC (4.1µM)): 157 | Triangulation percentage change compared to vehicle control (73-FOLD free ETPC (4.1µM)): 12% | Beat Escape (raw data) (73-FOLD free ETPC (4.1µM)): 1 | EADs (raw data) (73-FOLD free ETPC (4.1µM)): 0
